Experiments:
[1] = target: T1, Nuclear receptor ROR-gamma (Homo sapiens, UniProt P51449); assay: Inverse agonist activity against human RORgammat by FRET assay
T1 sequence (P51449 whole entry): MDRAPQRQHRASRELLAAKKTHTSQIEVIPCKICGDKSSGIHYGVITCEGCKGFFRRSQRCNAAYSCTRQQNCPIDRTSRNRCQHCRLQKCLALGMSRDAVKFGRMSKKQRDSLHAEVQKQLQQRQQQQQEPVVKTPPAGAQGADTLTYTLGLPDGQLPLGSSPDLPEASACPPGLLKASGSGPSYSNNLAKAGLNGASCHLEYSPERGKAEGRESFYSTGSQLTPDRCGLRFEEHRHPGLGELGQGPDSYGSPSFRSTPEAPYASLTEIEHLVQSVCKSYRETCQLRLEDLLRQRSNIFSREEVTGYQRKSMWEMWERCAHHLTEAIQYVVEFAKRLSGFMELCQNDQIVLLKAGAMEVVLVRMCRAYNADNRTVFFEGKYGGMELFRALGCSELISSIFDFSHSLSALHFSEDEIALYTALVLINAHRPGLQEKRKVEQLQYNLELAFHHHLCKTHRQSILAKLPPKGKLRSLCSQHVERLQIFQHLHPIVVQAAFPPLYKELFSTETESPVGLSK

[2] = target: T1, Nuclear receptor ROR-gamma; assay: Displacement of 25-[26,27-3H2]-hydroxycholesterol from RORgammat (unknown origin) assessed as inhibition constant by scintillation proximity assay

IC50 [1] [nM]	Ki [2] [nM]	Structure (SMILES)
5		Cc1ccc([C@@H](NC(=O)Cc2ccc3oc(C(O)c4c(C)noc4C)cc3c2)c2ccccc2)c(C)c1 (stereo partly drawn)
3		Cc1ccc(C(NC(=O)Cc2ccc(OCc3c(C)noc3C)cc2)c2ccccc2)c(C)c1 (stereo not drawn)
	3.7	CCS(=O)(=O)c1ccc(CC(=O)Nc2cnc3c(c2)CN(C[C@H]2CC[C@H](C(F)(F)F)CC2)[C@H]3C(C)C)nc1

— ChEMBL document CHEMBL5223085, “Agonist Lock Touched and Untouched Retinoic Acid Receptor-Related Orphan Receptor-γt (RORγt) Inverse Agonists: Classification Based on the Molecular Mechanisms of Action” (J Med Chem, 2021)
